Experimental data taken from patent US5733929A, “Pharmaceutical composition for treating or preventing allergic rhinitis” (Takeda Chemical Industries, Ltd., priority 1993, dated 1998).
Structures can show the parent of a compound that is named as a salt.

Experiments:
[1] = tested on: allergic experimental rhinitis; experiment: Experiment 1: inhibitory effects on allergic experimental rhinitis in guinea pigs (pigment leakage after antigen perfusion); type: in vivo; details: 30 mg/kg, oral, 1 hour before antigen
Method: Inhibitory effects on allergic experimental rhinitis in guinea pigs
Hartley male guinea pigs weighing 350 to 450 g were used. Aerosol of 1% ovalbumin (OA) in physiological saline was prepared using an ultrasonic nebulizer and administered to the guinea pigs by inhalation for 10 minutes. Thus the guinea pigs were sensitized. One week later, the antigen was administered again by inhalation, and the guinea pigs were used for this experiment after one week. The following experiment procedures were carried out by reference to the method of Kojima et al. (Allergy, Vol. 35, p. 180-187 (1986)).
The sensitized guinea pigs were anesthetized by administering pentobarbital (30 mg/kg) intraperitoneally. […] The collected sample was centrifuged at 3000 rpm for 10 minutes, and the absorbance of the supernatant at 620 nm was measured with a spectrophotometer to calculate the pigment concentration.
The drug was suspended in 5% gum arabic (G.A.) solution and was orally administered 1 hour before the antigen induction. The inhibitory ratio (%) was calculated as a ratio of the amount of the leaked pigment to the maximum amount of the leaked pigment in the control group 10 minutes after the antigen induction. […]

[2] = tested on: intranasal pressure increase induced by inhalation of antigens; experiment: Experiment 5: intranasal pressure increase induced by inhalation of antigens in actively sensitized (involving IgE participation) guinea pigs; type: in vivo; details: p.o.; for Internasal pressure increase AUC(0-30 min): 5% G.A. 339 ± 55
Method: Hartley male guinea pigs weighing 300 to 400 g (Nippon SLC, Shizuoka, Japan) were anesthetized with pentobarbital (30 mg/kg, i.p.) and fixed on their backs. The cervical part was opened along the median line, the trachea was opened for maintaining respiration, and a cannula was inserted. A tube (JMS cutdown tube, 2.5 mm in outer diameter and 3.5 cm in length) was inserted from the opened site of the trachea into the nasal cavity. The other end of the tube was connected to a respirator (Harvard respirator, model 683), and air was sent into the nasal cavity at a tidal volume of 4 ml and a respiration rate of 70/min. Aerosol of U-46619 (30 μg/ml) solution was prepared using an ultrasonic nebulizer and sent into the nasal cavity for 3 minutes. Changes of the intranasal pressure were determined with a differential pressure transducer connected to the branch of the tube. To prevent air leakage into the oral cavity, the oral cavity was closed with an adhesive (Aron alpha, trade name). Effects on intranasal pressure increase induced by inhalation of antigens in actively sensitized (involving IgE participation) guinea pigs Hartley male guinea pigs weighing 300 to 400 g (Nippon SLC, Shizuoka, Japan) were immunized by a modified method of the method of Levine et al. Sensitization was carried out by intraperitoneally administering physiological saline (1 ml) containing ovalbumin (OA)(10 μg) and aluminium hydroxide gel (5 mg) 4 times every 2 weeks. The sensitized guinea pigs were used one week after the final administration. These guinea pigs were anesthetized with pentobarbital (30 mg/kg, i.p.). In a similar manner to that described in Experiment 4, changes of intranasal pressure were determined. Aerosol of OA (3%) was prepared using an ultrasonic nebulizer provided between the respirator and the intranasal tube, and sent into the nasal cavity for 3 minutes. The test drug was suspended in 5% G.A. solution and orally administered one hour before the OA inhalation.

[3] = tested on: intranasal pressure increase induced by antigen inhalation; experiment: Experiment 6: intranasal pressure increase induced by antigen inhalation in guinea pigs sensitized by antigen inhalation; type: in vivo; details: p.o.; for Increase of intranasal pressure AUC(0-25 min): 5% G.A. 278 ± 35
Method: Hartley male guinea pigs weighing 300 to 400 g (Nippon SLC, Shizuoka, Japan) were anesthetized with pentobarbital (30 mg/kg, i.p.) and fixed on their backs. The cervical part was opened along the median line, the trachea was opened for maintaining respiration, and a cannula was inserted. A tube (JMS cutdown tube, 2.5 mm in outer diameter and 3.5 cm in length) was inserted from the opened site of the trachea into the nasal cavity. The other end of the tube was connected to a respirator (Harvard respirator, model 683), and air was sent into the nasal cavity at a tidal volume of 4 ml and a respiration rate of 70/min. Aerosol of U-46619 (30 μg/ml) solution was prepared using an ultrasonic nebulizer and sent into the nasal cavity for 3 minutes. Changes of the intranasal pressure were determined with a differential pressure transducer connected to the branch of the tube. To prevent air leakage into the oral cavity, the oral cavity was closed with an adhesive (Aron alpha, trade name). Effects on intranasal pressure increase induced by antigen inhalation in guinea pigs sensitized by antigen inhalation Aerosol of 1% OA solution in physiological saline was prepared and administered to Hartley male guinea pigs weighing 300 to 400 g (Nippon SLC, Shizuoka, Japan) by inhalation for 10 minutes. One week later, inhalation was performed again for sensitization. These animals were used as sensitized animals. In a similar manner to that described in Experiment 4, intranasal pressure was determined. The test drug was suspended in 5% G.A. solution and orally administered one hour before the antigen induction.

[4] = target: T1, human platelet-derived TXA2 receptor (Homo sapiens, UniProt P21731); experiment: binding of U-46619 to human platelet-derived TXA2 receptor expressing cells (TCHO-25), receptor assay
T1 construct: expressed in transfected cells
T1 sequence (P21731 1-343): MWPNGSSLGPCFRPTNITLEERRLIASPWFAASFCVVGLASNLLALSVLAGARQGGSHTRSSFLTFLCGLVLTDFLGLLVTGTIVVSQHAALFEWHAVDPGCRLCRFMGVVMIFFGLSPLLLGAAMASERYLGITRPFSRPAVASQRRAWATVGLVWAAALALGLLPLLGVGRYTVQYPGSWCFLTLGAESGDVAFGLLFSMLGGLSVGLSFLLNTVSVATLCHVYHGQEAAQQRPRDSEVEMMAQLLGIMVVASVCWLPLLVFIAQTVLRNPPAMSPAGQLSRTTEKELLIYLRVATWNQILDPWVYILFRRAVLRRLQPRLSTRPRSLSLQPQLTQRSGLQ
Description: Effects on the binding of U-46619 (11-9-epoxymethane-PGH2, a substance having thromboxane A2 -like activity) to human platelet-derived TXA2 receptor expressing cells
A vector containing cDNA encoding TXA2 receptor (TXA2 .cndot.R) and a vector containing cDNA encoding dihydrofolate reductase were mixed in a ratio of 10:1, and are transferred simultaneously to Chinese hamster ovary (CHO) cells by the calcium phosphate method. Two days later, these cells were inoculated into a medium containing 0.3 mM proline, 10% bovine fetus serum and 0.1 μM methotrexate in a concentration of 2000 cells/well and incubated.

allergic rhinitis = experiment: Experiment 2: effects of perfusion in nasal cavities on allergic rhinitis in guinea pigs (pigment leakage); type: in vivo; details: 5 mg/kg perfused in nasal cavity; increase Period-3 minus Period-1; 16 animals; 5% G.A. 13.83 ± 2.61
Method: Effects of perfusion in nasal cavities on allergic rhinitis in guinea pigs
Aerosol of 1% ovalbumin (OA) solution in physiological saline was prepared using an ultrasonic nebulizer (TUR-3200, Nippon Kohden, Tokyo, Japan), and administered to Hartley male guinea pigs weighing 300 to 350 g (Seiwa Jikken Dohbutsu, Fukuoka, Japan) by inhalation for 10 minutes in a polyacrylamide box (20×28×20 cm) once a week (twice in all). Thus the guinea pigs were sensitized. One week after the sensitization, the guinea pigs were anesthetized with pentobarbital sodium (30 mg/kg, i.p.) and fixed on their backs on a thermal pad (Deltaphase isothermal pad, Braintree Scientific, Inc.). The cervical part was opened along the median line, the trachea was opened, a trachea cannula was inserted into the pulmonary side, and the esophagus was ligated. On the other hand, a polyethylene tube (5.5 cm in length, 2.3 mm in outer diameter, Hibiki) connected to an infusion pump was inserted at the nasal side into the choana. […] The resulting perfusion solution was centrifuged at 15,000× g for 1.5 minutes, and the amount of the pigment in the supernatant was determined by absorbance at 610 nm. The activity of the drug was evaluated using as an indication the increased amount of the leaked pigment at Period-3 (i.e., (the amount of the pigment at Period-3)--(the amount of the pigment at Period-1)).

ICR male mice = experiment: oral toxicity in mice; type: in vivo; details: 1000 mg/kg, five ICR male mice (5 weeks old), 7 days
Description: The compounds to be used as an active ingredient in the present invention have low toxicity. […] The compound to be used as an active ingredient in the present invention can be used as it is or as a pharmaceutical composition (e.g., tablets, granules, capsules including soft capsules and microcapsules, liquid preparations, injections, suppositories, nasal drops, eye drops, etc.) prepared by mixing the compound with a per se known pharmaceutically acceptable carrier, diluent, excipient, etc., for treating or preventing allergic rhinitis, particularly nasal congestion in a mammal. The administration route may be oral or parenteral. The dose varies with the subject to be administered, administration route, symptoms, etc. For example, for oral administration to an adult patient, a unit dose of normally about 0.1 mg/kg to 20 mg/kg body weight, preferably 0.1 mg/kg to 10 mg/kg body weight is advantageously administered about once or twice a day.

Q: Which “Inhibitory ratio (%)” value ([1]; Table 1, 9 animals) does the source give for COc1ccc(CN(CCN(C)C)c2ccccn2)cc1 [Mepyramine] here?
A: 81%

Q: And the “Inhibitory ratio (%)” value ([1]; Table 2, 10 animals, **P < 0.01)?
A: 77%

Q: What does the source list for CN1CCCC(n2nc(Cc3ccc(Cl)cc3)c3ccccc3c2=O)CC1 (stereo not shown) [Azelastine hydrochloride, reference compound]?
A: Internasal pressure increase AUC(0-30 min) ([2]; 1.0 mg/kg, 8 animals, **P < 0.01): 92 ± 14; Inhibitory ratio (%) ([2]; 1.0 mg/kg, AUC(0-30 min), 8 animals): 73%; Increase of intranasal pressure AUC(0-25 min) ([3]; 1.0 mg/kg, 7 animals, marked **): 157 ± 35; Inhibitory ratio (%) ([3]; 1.0 mg/kg, AUC(0-25 min), 7 animals): 44%

Q: Which results are given for CC1=C(C)C(=O)C(C(CCCCCC(=O)O)c2ccccc2)=C(C)C1=O (racemic) [Compound 1, (±)-7-(3,5,6-trimethyl-1,4-benzoquinon-2-yl)-7-phenylheptanoic acid]?
A: inhibition of the binding of U-46619 to TXA2 receptor (mode) ([4]; TCHO-25 cells): competitively inhibited; Pigment concentration (allergic rhinitis): 8.87 ± 2.47 µg/mL; Internasal pressure increase AUC(0-30 min) ([2]; 0.3 mg/kg, 12 animals): 208 ± 44; Internasal pressure increase AUC(0-30 min) ([2]; 3.0 mg/kg, 12 animals): 241 ± 32; Internasal pressure increase AUC(0-30 min) ([2]; 30 mg/kg, 13 animals, *P < 0.05): 183 ± 36; Increase of intranasal pressure AUC(0-25 min) ([3]; 0.3 mg/kg, 7 animals): 246 ± 44; Increase of intranasal pressure AUC(0-25 min) ([3]; 3.0 mg/kg, 8 animals): 201 ± 41; Increase of intranasal pressure AUC(0-25 min) ([3]; 30 mg/kg, 7 animals, *P < 0.05): 143 ± 19; mortality (ICR male mice): no mice died

Q: For CCCCC[C@H](O)/C=C/[C@@H]1[C@@H](C/C=C\CCCC(=O)O)[C@H]2CO[C@@H]1C2 [Compound U-46619, 11-9-epoxymethane-PGH2, reference compound], which Kd ([4]; U-46619 based on TXA2 receptor on TCHO-25 cells, read-out: dissociation constant) is on record?
A: 31 nM
